Series [1] has as its target T1, 5-HT2C receptor (Rattus norvegicus, UniProt P08909).
T1 sequence (P08909 33-460): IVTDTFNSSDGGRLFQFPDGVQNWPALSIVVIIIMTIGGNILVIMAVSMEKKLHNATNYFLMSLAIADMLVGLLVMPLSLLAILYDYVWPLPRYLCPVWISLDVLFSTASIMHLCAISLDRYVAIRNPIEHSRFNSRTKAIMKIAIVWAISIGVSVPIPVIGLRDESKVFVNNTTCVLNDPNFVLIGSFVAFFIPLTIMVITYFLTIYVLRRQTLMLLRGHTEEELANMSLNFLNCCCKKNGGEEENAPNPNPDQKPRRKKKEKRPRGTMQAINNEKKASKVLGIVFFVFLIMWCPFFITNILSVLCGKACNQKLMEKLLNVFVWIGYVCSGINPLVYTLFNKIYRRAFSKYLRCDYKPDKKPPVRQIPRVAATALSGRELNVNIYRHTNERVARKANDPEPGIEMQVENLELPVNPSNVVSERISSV
Kind of series: 5-HT2C receptor radioligand binding (3H-mesulergine). The following applies: rat brain cortex, mean ± SEM of three experiments, read-out: Receptor Affinity Ki ± SEM 5-HT2C.

In series [2] the target is D2 receptor (Rattus norvegicus, UniProt P61169). Kind of series: D2 receptor radioligand binding (3H-spiperone). The following applies: for Ki: Receptor Affinity Ki ± SEM D2, rat striatum, 3H-spiperone, mean ± SEM of three experiments; for potency ratio between D2 and 5-HT1A, 5-HT2A: ratio of Ki values.
In series [3] the target is D3 receptor (Rattus norvegicus, UniProt P19020). The experiment in a line: D3 receptor radioligand binding (3H-7-OH-DPAT).
Series [4] concerns the target 5-HT2A receptor (Rattus norvegicus, UniProt P14842). Kind of series: 5-HT2A receptor radioligand binding (3H-ketanserin). The following applies: Receptor Affinity Ki ± SEM 5-HT2A.
Series [5] has as its target α1 receptor. Kind of series: α1 receptor radioligand binding (3H-prazosin). The following applies: rat cerebral cortex, mean ± SEM of three experiments, read-out: Receptor Affinity Ki ± SEM α1.
Series [6] deals with hERG potassium channels (Homo sapiens, UniProt Q12809). Kind of series: hERG potassium channel block, patch clamp in HEK cells. Background: Block of hERG is tested as a sign of cardiac risk.
The target of series [7] is H1 receptor (Cavia porcellus, UniProt P31389). Kind of series: H1 receptor radioligand binding (3H-mepyramine). The following applies: guinea pig cerebellum, mean ± SEM of three experiments, read-out: Receptor Affinity Ki ± SEM H1.
Series [8] concerns the target T2, D2L receptor (Homo sapiens, UniProt P14416).
T2 construct: expressed in transfected cells; host or cells: HEK293
The experiment in a line: Intrinsic activity, FLIPR calcium assay, HEK293/D2L. The series is classed as cell-based.

The target of series [9] is T3, 5-HT2A receptor (Homo sapiens, UniProt P28223).
T3 construct: expressed in transfected cells; host or cells: HEK293
Kind of series: Intrinsic activity, FLIPR calcium assay, HEK293/5-HT2A. The series is classed as cell-based. The following applies: for inhibition at 10 µM: HEK293, read-out: Inhibition (10 μM, %), 5-HT2A, antagonist mode, 10 μM, n = 3.

The target of series [10] is T4, 5-HT1A receptor (Homo sapiens, UniProt P08908).
T4 construct: expressed in transfected cells; host or cells: HEK293
T4 sequence (P08908 1-422): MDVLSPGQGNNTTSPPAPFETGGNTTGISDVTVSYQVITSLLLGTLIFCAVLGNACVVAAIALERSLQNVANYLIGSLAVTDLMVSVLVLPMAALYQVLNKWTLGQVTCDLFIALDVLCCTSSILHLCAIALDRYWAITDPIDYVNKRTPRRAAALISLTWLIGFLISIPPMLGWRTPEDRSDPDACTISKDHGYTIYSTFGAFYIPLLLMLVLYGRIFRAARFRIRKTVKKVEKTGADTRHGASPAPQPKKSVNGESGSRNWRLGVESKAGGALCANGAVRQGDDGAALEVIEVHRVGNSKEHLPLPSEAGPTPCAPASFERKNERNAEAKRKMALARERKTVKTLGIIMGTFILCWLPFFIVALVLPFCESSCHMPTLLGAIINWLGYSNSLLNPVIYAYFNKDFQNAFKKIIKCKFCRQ
Kind of series: Intrinsic activity, FLIPR calcium assay, HEK293/5-HT1A. The series is classed as cell-based. The following applies: antagonist mode.

Series [11] deals with APO-induced climbing in mice. The experiment in a line: Apomorphine-induced climbing. The following applies: Mus musculus, po, apomorphine 1.0 mg/kg sc. The series is classed as in vivo.
Procedure: Apomorphine-Induced Climbing [1-3].
Animals were placed in Plexiglas cages
for evaluating locomotor activity.
5.3 Catalepsy Test [1-3].
Catalepsy was evaluated on a metal
(§1) A mean immobility score of 30 s was used
(§2) as the criterion for the presence of catalepsy.
Series [12] concerns the target T5, D3 receptor (Homo sapiens, UniProt P35462).
T5 construct: expressed in transfected cells; host or cells: HEK293/ACTOne
The experiment in a line: Intrinsic activity, FLIPR calcium assay, HEK293/ACTOne D3. The series is classed as cell-based.

In series [13] the test system is MK-801-induced hyperactivity in mice. The experiment in a line: MK-801-induced hyperactivity. The series is classed as in vivo. The following applies: Mus musculus, po, MK-801 0.3 mg/kg sc, read-out: MK-80: MK-801-induced hyperactivity ED50.
Procedure: Apomorphine-Induced Climbing [1-3].
Animals were placed in Plexiglas cages
for evaluating locomotor activity.
5.3 Catalepsy Test [1-3].
Catalepsy was evaluated on a metal
as §1, §2
The nature of series [14]: in vivo. The following applies: mouse.
The nature of series [15]: in vivo. The following applies: mouse, po.
Where [16] appears, read: rat brain cortex, 3H-ketanserin, mean ± SEM of three experiments.

Some results are limits rather than exact numbers.

Sequence of D3 receptor (Rattus norvegicus, UniProt P19020) (P19020 whole entry): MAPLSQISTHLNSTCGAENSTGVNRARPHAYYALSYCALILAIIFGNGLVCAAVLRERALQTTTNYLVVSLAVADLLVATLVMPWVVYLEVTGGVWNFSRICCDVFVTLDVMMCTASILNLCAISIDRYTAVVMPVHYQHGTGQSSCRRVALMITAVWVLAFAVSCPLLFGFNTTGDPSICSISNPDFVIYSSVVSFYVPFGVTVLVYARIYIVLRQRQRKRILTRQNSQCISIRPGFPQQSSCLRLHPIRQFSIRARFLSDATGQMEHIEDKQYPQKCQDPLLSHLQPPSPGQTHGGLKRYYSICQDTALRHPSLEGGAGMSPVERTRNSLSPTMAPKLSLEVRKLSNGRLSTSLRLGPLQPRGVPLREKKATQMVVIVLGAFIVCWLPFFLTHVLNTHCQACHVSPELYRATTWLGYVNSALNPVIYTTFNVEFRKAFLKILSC
Sequence of 5-HT2A receptor (Rattus norvegicus, UniProt P14842) (P14842 whole entry): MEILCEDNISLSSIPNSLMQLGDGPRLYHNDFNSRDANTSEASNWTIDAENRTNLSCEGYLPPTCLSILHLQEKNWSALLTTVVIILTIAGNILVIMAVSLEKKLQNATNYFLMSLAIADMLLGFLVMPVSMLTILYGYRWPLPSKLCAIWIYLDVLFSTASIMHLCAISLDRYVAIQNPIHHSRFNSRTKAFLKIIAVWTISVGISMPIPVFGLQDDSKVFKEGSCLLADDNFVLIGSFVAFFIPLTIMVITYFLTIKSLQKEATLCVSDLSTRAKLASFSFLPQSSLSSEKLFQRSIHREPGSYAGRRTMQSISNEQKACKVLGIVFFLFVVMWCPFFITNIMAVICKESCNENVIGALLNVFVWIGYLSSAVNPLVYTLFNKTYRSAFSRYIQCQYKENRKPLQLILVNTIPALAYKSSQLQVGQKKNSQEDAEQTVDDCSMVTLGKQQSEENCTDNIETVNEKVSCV
Sequence of hERG potassium channels (Q12809 whole entry): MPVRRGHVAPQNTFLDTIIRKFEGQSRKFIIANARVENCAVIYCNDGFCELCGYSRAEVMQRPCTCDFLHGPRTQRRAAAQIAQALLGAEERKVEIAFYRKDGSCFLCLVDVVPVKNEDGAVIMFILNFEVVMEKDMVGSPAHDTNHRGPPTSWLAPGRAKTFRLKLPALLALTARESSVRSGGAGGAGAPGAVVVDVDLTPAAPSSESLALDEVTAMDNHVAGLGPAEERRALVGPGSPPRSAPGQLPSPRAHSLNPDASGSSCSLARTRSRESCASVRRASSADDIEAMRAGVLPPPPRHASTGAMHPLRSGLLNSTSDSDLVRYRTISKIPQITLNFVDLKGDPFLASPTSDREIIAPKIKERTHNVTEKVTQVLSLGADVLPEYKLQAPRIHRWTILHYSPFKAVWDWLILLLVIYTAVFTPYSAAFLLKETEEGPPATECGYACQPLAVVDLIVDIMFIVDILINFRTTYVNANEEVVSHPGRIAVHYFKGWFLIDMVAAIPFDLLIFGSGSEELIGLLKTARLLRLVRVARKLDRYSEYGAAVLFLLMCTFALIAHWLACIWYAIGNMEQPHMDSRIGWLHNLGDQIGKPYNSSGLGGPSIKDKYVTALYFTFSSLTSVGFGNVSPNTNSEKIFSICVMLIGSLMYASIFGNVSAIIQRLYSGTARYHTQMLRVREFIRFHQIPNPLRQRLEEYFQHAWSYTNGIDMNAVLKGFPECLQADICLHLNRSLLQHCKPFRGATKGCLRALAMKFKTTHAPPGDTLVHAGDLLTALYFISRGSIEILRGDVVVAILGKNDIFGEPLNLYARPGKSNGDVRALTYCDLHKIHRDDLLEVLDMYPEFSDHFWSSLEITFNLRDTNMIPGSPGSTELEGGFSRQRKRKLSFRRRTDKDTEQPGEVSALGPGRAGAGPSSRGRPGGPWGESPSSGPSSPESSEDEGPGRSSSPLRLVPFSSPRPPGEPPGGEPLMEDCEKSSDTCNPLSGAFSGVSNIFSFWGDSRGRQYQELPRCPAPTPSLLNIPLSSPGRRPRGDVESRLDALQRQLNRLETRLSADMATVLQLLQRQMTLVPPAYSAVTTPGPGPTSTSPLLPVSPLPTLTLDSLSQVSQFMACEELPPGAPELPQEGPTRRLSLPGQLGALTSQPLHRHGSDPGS
T3 sequence (P28223 whole entry): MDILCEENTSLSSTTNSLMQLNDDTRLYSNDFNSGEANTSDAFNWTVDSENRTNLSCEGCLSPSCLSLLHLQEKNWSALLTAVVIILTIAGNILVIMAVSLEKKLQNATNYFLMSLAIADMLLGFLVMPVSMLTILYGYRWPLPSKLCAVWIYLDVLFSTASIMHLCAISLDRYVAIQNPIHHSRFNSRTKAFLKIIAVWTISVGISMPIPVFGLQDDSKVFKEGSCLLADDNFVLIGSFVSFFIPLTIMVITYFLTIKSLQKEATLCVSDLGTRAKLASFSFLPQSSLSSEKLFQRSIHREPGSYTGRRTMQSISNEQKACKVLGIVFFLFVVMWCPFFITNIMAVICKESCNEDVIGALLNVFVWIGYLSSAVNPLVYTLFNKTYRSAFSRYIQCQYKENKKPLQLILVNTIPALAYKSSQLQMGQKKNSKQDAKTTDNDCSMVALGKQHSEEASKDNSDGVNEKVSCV
Sequence of H1 receptor (P31389 whole entry): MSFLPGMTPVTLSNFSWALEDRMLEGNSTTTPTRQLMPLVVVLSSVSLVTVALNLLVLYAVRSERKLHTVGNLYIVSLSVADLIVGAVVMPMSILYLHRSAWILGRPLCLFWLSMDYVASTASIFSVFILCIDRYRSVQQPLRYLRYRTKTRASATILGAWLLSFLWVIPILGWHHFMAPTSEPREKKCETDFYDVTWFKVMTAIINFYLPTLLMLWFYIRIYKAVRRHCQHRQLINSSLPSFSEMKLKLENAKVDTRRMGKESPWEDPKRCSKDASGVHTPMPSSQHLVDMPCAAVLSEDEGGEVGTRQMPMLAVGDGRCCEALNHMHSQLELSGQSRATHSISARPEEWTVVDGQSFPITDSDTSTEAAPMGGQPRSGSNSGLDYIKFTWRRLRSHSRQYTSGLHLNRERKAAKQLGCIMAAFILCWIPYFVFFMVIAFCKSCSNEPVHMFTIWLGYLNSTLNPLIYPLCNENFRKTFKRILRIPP
Sequence of D2 receptor (P61169 whole entry): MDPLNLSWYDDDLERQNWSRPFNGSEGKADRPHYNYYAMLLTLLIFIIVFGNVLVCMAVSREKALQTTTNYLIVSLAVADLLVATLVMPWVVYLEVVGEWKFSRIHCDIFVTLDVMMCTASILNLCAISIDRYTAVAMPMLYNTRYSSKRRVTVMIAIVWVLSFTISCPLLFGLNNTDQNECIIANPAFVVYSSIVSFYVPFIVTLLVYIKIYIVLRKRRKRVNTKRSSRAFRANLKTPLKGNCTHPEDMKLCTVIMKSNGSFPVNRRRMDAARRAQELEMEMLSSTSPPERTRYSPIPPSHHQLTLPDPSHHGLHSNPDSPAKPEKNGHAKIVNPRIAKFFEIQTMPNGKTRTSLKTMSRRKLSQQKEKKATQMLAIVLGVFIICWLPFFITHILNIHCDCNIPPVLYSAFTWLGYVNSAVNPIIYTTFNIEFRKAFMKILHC
T5 sequence (P35462 whole entry): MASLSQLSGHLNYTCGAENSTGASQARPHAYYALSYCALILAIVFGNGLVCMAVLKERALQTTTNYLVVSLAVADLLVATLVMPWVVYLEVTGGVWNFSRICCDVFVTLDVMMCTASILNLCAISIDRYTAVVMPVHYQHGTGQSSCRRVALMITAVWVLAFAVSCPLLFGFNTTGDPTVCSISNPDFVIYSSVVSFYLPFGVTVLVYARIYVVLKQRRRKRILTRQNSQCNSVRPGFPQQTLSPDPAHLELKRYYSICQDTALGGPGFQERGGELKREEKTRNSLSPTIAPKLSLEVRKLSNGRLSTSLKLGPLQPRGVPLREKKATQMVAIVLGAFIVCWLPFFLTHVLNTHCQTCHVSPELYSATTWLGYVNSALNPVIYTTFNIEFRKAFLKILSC
T2 sequence (P14416 whole entry): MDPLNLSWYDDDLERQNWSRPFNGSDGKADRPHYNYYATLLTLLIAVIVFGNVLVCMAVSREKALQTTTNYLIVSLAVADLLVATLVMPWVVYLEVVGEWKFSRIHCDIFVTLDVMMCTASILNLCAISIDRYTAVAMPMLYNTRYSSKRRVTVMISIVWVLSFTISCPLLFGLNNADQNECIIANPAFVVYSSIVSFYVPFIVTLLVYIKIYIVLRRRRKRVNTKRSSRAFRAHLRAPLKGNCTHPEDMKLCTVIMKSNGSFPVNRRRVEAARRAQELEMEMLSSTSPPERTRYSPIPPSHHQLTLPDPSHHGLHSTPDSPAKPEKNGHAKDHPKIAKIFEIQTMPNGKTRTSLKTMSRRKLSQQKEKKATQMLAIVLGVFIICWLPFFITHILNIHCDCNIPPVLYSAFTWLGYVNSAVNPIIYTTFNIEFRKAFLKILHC

On to `O=C1CC2(CCCC2)Oc2cc(OCCCCN3CCC(c4noc5cc(F)ccc45)CC3)ccc21` [Compound 9d, 7-(4-(4-(6-Fluorobenzo[d]isoxazol-3-yl)piperidin-1-yl)butoxy)spiro[chromane-2,1′-cyclopentan]-4-one], for which the melting point is 103 to 105 °C. The Ki in series [1] worked out at 426 ± 47.8 nM. In series [2], the affinity, expressed as Ki, was 15.7 ± 1.9 nM; the “potency ratio between D2 and 5-HT1A, 5-HT2A” value is on record as “less than 5”. This compound gave a Ki in series [3] of 42.6 ± 5.3 nM. Further, affinity in series [4] (setting [16]) was put at a Ki of 8.5 ± 0.7 nM. For the same compound, the Ki in series [5] worked out at 162 ± 57.1 nM. In series [6], this compound registered an IC50 of 3380 ± 352 nM. In addition, in [7], the inhibition constant (Ki) was found to be 784 ± 98.3 nM.
Compound `O=C1CC2(CCCCC2)Oc2cc(OCCCN3CCC(c4noc5cc(F)ccc45)CC3)ccc21` [Compound 9g, 7-(3-(4-(6-Fluorobenzo[d]isoxazol-3-yl)piperidin-1-yl)propoxy)spiro[chromane-2,1′-cyclohexan]-4-one] had a melting point of 96 to 98 °C. In addition, in series [1], the inhibition constant (Ki) turned out to be 401 ± 55.6 nM. Further, in [2], the Ki was 18.4 ± 1.8 nM; the “potency ratio between D2 and 5-HT1A, 5-HT2A” value is given as “less than 5”. For the same compound, the inhibition constant (Ki) in [3] was found to be 35.2 ± 2.8 nM. In addition, the affinity in series [4] (setting [16]), expressed as Ki, was 9.1 ± 1.1 nM. The Ki in series [5] is 138 ± 39.8 nM. The IC50 in series [6] was found to be 3020 ± 291 nM. The Ki in [7] amounted to 909 ± 78.5 nM.
Consider `CC1(C)CC(=O)c2ccc(OCCCCN3CCC(c4noc5cc(F)ccc45)CC3)cc2O1` [Compound 6j, 7-(4-(4-(6-Fluorobenzo[d]isoxazol-3-yl)piperidin-1-yl)butoxy)-2,2-dimethylchroman-4-one], for which the Ki in [1] stood at 566 ± 75.4 nM; in [2], 12.1 ± 1.5 nM; in series [3], 25.4 ± 3.1 nM; in series [4], 3.2 ± 0.4 nM; in [5], 237 ± 86.4 nM; in series [7], 939 ± 101 nM. In addition, the concentration for half-maximal inhibition (IC50) in [8] came out at 8.9 nM; in series [9] it was 195 nM; in series [10] (5-HT1A), 201 nM; in [12], 31.5 nM; in series [6] it was 3770 ± 298 nM. For the same compound, the inhibition at 10 µM in series [8] (HEK293, read-out: Inhibition (10 μM, %), D2L, antagonist mode, 10 μM, n = 3) was greater than 90%; in series [9], greater than 90%; in series [10] (HEK293, 5-HT1A, 10 μM, n = 3) it was greater than 90%; in [12] (HEK293, read-out: Inhibition (10 μM, %), D3, antagonist mode, 10 μM, n = 3), greater than 90%. In addition, the ED50 was 0.19 mg/kg in series [11], 0.16 mg/kg in series [13], 58.4 mg/kg in series [15] (Kun Ming (KM)) and 56.8 mg/kg in series [15]. The LD50 at 24 h in series [14] was greater than 2000 mg/kg.
Consider `CN1CCN(C2=Nc3cc(Cl)ccc3Nc3ccccc32)CC1` [Clozapine, reference compound], for which the ED50 in series [11] was found to be 17.9 mg/kg; in series [13] it was 2.28 mg/kg; in [15], 50 mg/kg.
For `O=C(c1ccc(F)cc1)C1CCN(CCn2c(=O)[nH]c3ccccc3c2=O)CC1` [ketanserin, reference compound], the inhibition at 10 µM in series [9] stood at 98.2 ± 2.6%.
As for `O=C1CC2(CCCCC2)Oc2cc(OCCCCN3CCC(c4noc5cc(F)ccc45)CC3)ccc21` [Compound 9h, 7-(4-(4-(6-Fluorobenzo[d]isoxazol-3-yl)piperidin-1-yl)butoxy)spiro[chromane-2,1′-cyclohexan]-4-one], the Ki in series [1] amounted to 528 ± 68.5 nM; in series [2] it was 17 ± 2.3 nM; in [3], 38.6 ± 3.7 nM; in series [4] (setting [16]), 7.3 ± 0.4 nM; in series [5], 102 ± 50.6 nM; in [7] it was 819 ± 91.8 nM. Further, the IC50 in [6] is 3980 ± 411 nM.

One may read the Ki as the dissociation constant of the complex between target and ligand, obtained from inhibition or displacement. Broadly, the IC50 is the concentration that inhibits the measured activity by half. What is called melting point is the temperature of the solid-liquid transition. The term inhibition denotes the change of the read-out against control, counted positive when it falls. As a reminder, the ED50 is the midpoint of the dose-response relation. As usually defined, the LD50 is the dose expected to kill half of the subjects tested. A low value points to a more toxic substance.

The values are drawn from article PMC7571155, “Design, Synthesis and Biological Investigation of Flavone Derivatives as Potential Multi-Receptor Atypical Antipsychotics” (Molecules, 2020).
